Patent US11111240B2, “Sultam compound and application method thereof” (Chia Tai Tianqing Pharmaceutical Group Co., Ltd., priority 2016, dated 2021)
Where two headings read alike, the source gives them in different places.

Assays:
[1] = Pharmacokinetic experiments in male SD rats, single peroral administration; type: in vivo, rat; conditions: for Cmax / Tmax / AUC(0-inf) / half-life: plasma; for AUC(0-inf): read-out: AUCINF—obs
Procedure: Male SD rats were from Beijing Vital River Laboratory Animal Technology Co., Ltd., and divided into groups (3 rats per group). The rats were intragastrically administered with the test sample suspension (5 mg/kg) via a single peroral administration, respectively. The animals were fasted overnight before this study. The fasting time period was from 10 hours before administration to 4 hours after administration. Blood samples were taken at 0.25, 0.5, 1, 2, 4, 6, 8 and 24 hours after administration. After the rats were anesthetized with isoflurane using an anesthesia machine for small animal, and then 0.3 mL whole blood samples were taken from the fundus venous plexus. The blood samples were placed in heparin anticoagulant tubes, and centrifuged for 5 min at 4° C. and 4000 rpm. The plasma was transferred to centrifuge tubes, and stored at −80° C. until analysis. The samples in plasma were extracted through protein precipitation. The liquid extract was analyzed by LC-MS/MS, wherein HPLC conditions were as follows: flow rate 0.4 mL/min; mobile phase A: water/formic acid (99.9/0.1, v/v); mobile phase B: acetonitrile/formic acid (99.9/0.1, v/v); injection volume: 5 μL; column temperature: RT; autosampler temperature: RT; run time: 2.5 min.

U87/IDH1 (R132H) cells = assay: Inhibitory activity on IDH1-mutated U87 cells (2-HG determination); type: cell-based; conditions: Homo sapiens, U-87 MG
Procedure: In the presence of 2-HG, phosphoglycerate dehydrogenase PHGDH can reduce NAD to NADPH, and the latter may be quantitatively determined by lipoamide dehydrogenase and the substrate thereof, resazurin.
U87 cell is a human glioblastoma cell line with an IDH1 mutation (R132H).
Cells was digested with trypsin, and inoculated into a 6-well plate at a density of 5×10^5, and cultured overnight in an incubator at 37° C. […] Culture medium of each sample was sucked out and centrifuged at 1000 rpm for 10 min. The supernatant was sucked out to detect the content of 2-HG therein. Additionally, cells were washed with PBS (phosphate buffered saline), digested with trypsin and collected. After the collected cells were washed with PBS for one time, the determination of intracellular 2-HG content was performed.
The method for determining the intracellular 2-HG was as follows: cells were re-suspended with 300 μL reaction buffer (40 mM Tris-HCl, pH 8.5; 150 mM NaCl) and disrupted by ultrasonication. They were centrifuged for 10 min at 12,000 rpm and 4° C. to remove insoluble substances. 25 μL supernatant was sucked out to determine the protein concentration by a BCA kit. […]
The measured fluorescence values were compared after being corrected with the protein concentrations of the corresponding samples.

IDH1 (R132H) = IDH1 (R132H) (Homo sapiens (Human), UniProt O75874, R132H); assay: Enzyme assay, IDH1m inhibition (NADPH decrease, diaphorase/resazurin); type: biochemical; conditions: 40 nM enzyme, 16 h pre-incubation at 23° C.
IDH1 (R132H), sequence (O75874 whole entry R132H): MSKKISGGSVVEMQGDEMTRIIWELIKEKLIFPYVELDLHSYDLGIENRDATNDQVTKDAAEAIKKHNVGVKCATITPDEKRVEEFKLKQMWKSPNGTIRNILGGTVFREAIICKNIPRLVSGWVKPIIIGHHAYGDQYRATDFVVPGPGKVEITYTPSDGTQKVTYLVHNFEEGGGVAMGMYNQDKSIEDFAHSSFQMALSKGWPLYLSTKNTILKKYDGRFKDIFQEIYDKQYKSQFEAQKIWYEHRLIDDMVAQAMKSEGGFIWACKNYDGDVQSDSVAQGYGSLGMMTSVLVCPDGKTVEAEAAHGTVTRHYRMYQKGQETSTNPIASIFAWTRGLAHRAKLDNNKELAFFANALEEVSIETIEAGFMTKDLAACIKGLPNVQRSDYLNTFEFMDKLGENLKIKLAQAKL
Description: (§1) Resazurin is a traditional redox dye, and after a redox reaction, it can be reduced from a blue resazurin without fluorescence to a pink fluorescent substance, resorufin, which can be measured and quantified with relative fluorescence unit (RFU) of fluorophotometer (Ex=530-570 nm, Em=590-620 nm). At present, resazurin is widely used for determining the viability of bacteria, cells, etc. and the enzyme activity detection of oxidoreductase. We detected the decrease of cofactor NADPH to determine the inhibitory activity of a compound against IDH1m and detected the generation of cofactor NADPH to determine the inhibitory activity of a compound against IDH WT. The compound was pre-incubated with IDH1m and NADPH, and then the reaction was initiated by adding α-KG and performed for certain time under a linear condition. Then, diaphorase (lipoamide dehydrogenase) and the corresponding substrate resazurin were added thereto for detection. Lipoamide dehydrogenase terminated the IDH1m reaction by decreasing the available cofactor NADPH, which oxidized NADPH to NADP, and reduced resazurin to high fluorescent resorufin. The amount of the remaining cofactor NADPH after a specific reaction time was quantified via an easily detectable fluorophore.
(§2) The specific operation was as follows: 2.5 μl of the compound diluted in a 3-fold gradient was added to a 384-well plate, followed by adding 5 μl of the reaction buffer (20 mM Tris-HCl, pH 7.5; 150 mM NaCl; 10 mM MgCl2; 0.4 mg/mL BSA (Bovine Serum Albumin) and 2 mM DTT (dithiothreitol)) containing 40 nM IDH1 (R132H/R132C) and 20 μM NADPH. Then, the above test mixture was incubated at 23° C. for 16 hours, and then 2.5 μl of the reaction buffer containing 4 mM α-KG was added to initiate the reaction. After they were incubated for 60 minutes at room temperature, 5 μl of the termination mixture (0.4 U/ml diaphorase and 20 μM resazurin) formulated with the reaction buffer was added to convert resazurin to resorufin, so as to measure the amount of the remaining NADPH. After incubating at 23° C. for 10 minutes, fluorescence values were determined through Flexstation 3 at Ex535/Em595. The enzyme activity of each compound was respectively determined at 12 concentrations, and the data were calculated using the software GraFit6.0 (Erithacus Software) to obtain the IC50 value of each compound.

IDH1 (R132C) = IDH1 (R132C) (Homo sapiens (Human), UniProt O75874, R132C); assay: as above; type: biochemical; conditions: 40 nM enzyme, 16 h pre-incubation at 23° C.
IDH1 (R132C), sequence (O75874 whole entry R132C): as the sequence (O75874 whole entry R132H) above, with H132C counted along it
Description: as §1, §2

[2] = rat, male SD rats, oral 5 mg/kg, 0.5% MC, 0.2% Tween80

SMILES | Cmax [1, 2] | Tmax [1, 2] | AUC(0-inf) [1, 2] | IC50 (U87/IDH1 (R132H) cells) | IC50 (IDH1 (R132H)) | IC50 (IDH1 (R132C)) | further results
N#Cc1ccnc(N2C(=O)CC[C@H]2C(=O)N(c2cncc(F)c2)[C@H](C(=O)NC2CC(F)(F)C2)c2ccccc2Cl)c1 [AG-120, ivosidenib, reference compound] | 0.719 µg/mL | 0.67 h | 6.32 µg·h/mL | 0.046 µM |  |  | half-life ([1]; rat, male SD rats, oral 5 mg/kg, 0.5% MC, 0.2% Tween80, read-out: T1/2 (converted)): 3.28 h
N#Cc1ccnc(N2[C@H](C(=O)N(c3cncc(F)c3)[C@H](C(=O)NC3CC(F)(F)C3)c3ccccc3Cl)CCS2(=O)=O)c1 [Example 2, (S)—N—((S)-1-(2-chlorophenyl)-2-((3,3-difluorocyclobutyl)amino)-2-oxoethyl)-2-(4-cyanopyridin-2-yl)-N-(5-fluoropyridin-3-yl)-isothiazolidine-3-carboxamide 1,1-dioxide] |  |  |  | 0.0067 µM | < 0.02 µM | < 0.02 µM | 
N#Cc1ccnc(N2[C@H](C(=O)N(c3cccc(F)c3)[C@H](C(=O)NC3CC(F)(F)C3)c3ccccc3Cl)CCS2(=O)=O)c1 [Example 12, (S)—N—((S)-1-(2-chlorophenyl)-2-((3,3-difluorocyclobutyl)amino)-2-oxoethyl)-2-(4-cyanopyridin-2-yl)-N-(3-fluorophenyl)-isothiazolidine-3-carboxamide 1,1-dioxide] | 0.556 µg/mL | 4 h | 10.6 µg·h/mL |  | < 0.02 µM | < 0.02 µM | T1/2 ([1]; male SD rats, oral 5 mg/kg, 0.5% MC, 0.2% Tween80): 10.7 h; half-life ([1]; male, SD, 5 mg/kg, rat, oral, read-out: half-life (converted)): 10.7 h; drug exposure in plasma compared with AG-120 ([1]; rat, same oral dose): far higher than that of AG-120
CN1C[C@@H](C(=O)N(c2cccc(F)c2)C(C(=O)NC2CC(F)(F)C2)c2ccccc2Cl)N(c2cc(C#N)ccn2)S1(=O)=O (stereo partly drawn) [Example 25, (3S)—N-(1-(2-chlorophenyl)-2-((3,3-difluorocyclobutyl)amino)-2-oxoethyl)-2-(4-cyanopyridin-2-yl)-N-(3-fluorophenyl)-5-methyl-1,2,5-thiadiazolidine-3-carboxamide 1,1-dioxide] |  |  |  |  | 0.02 µM |  | 
N#Cc1ccnc(N2[C@H](C(=O)N(c3cccc(S(N)(=O)=O)c3)C(C(=O)NC3CCCCC3)c3ccccc3Cl)CCS2(=O)=O)c1 (stereo partly drawn) [Example 26, (3S)—N-(1-(2-chlorophenyl)-2-(cyclohexylamino)-2-oxoethyl)-2-(4-cyanopyridin-2-yl)-N-(3-aminosulfonylphenyl)-isothiazolidine-3-carboxamide 1,1-dioxide] |  |  |  |  | < 0.02 µM |  | 
N#Cc1ccnc(N2[C@H](C(=O)N(c3cc(F)c[n+]([O-])c3)[C@H](C(=O)NC3CC(F)(F)C3)c3ccccc3Cl)CCS2(=O)=O)c1 [Example 27, 3-((S)—N—((S)-1-(2-chlorophenyl)-2-((3,3-difluorocyclobutyl)amino)-2-oxoethyl)-2-(4-cyanopyridin-2-yl)-1,1-dioxoisothiazolidine-3-carboxamido)-5-fluoropyridine-1-oxide] |  |  |  |  | 0.02 µM |  | 
